Data: PMC3961306, “Comparison of the Cancer Gene Targeting and Biochemical Selectivities of All Targeted Kinase Inhibitors Approved for Clinical Use” (PLoS ONE, 2014)

How the values were obtained:
Test in all cases: Kinase profiling in a biochemical assay panel (mobility shift assays and ELISA), %-inhibition at 1 μM; selectivity entropy
[1] = molecular target: T1, panel of more than 300 wild-type and mutant kinases (313 kinase panel) (Homo sapiens, UniProt Q9NZJ5)
T1 sequence (Q9NZJ5 30-1116): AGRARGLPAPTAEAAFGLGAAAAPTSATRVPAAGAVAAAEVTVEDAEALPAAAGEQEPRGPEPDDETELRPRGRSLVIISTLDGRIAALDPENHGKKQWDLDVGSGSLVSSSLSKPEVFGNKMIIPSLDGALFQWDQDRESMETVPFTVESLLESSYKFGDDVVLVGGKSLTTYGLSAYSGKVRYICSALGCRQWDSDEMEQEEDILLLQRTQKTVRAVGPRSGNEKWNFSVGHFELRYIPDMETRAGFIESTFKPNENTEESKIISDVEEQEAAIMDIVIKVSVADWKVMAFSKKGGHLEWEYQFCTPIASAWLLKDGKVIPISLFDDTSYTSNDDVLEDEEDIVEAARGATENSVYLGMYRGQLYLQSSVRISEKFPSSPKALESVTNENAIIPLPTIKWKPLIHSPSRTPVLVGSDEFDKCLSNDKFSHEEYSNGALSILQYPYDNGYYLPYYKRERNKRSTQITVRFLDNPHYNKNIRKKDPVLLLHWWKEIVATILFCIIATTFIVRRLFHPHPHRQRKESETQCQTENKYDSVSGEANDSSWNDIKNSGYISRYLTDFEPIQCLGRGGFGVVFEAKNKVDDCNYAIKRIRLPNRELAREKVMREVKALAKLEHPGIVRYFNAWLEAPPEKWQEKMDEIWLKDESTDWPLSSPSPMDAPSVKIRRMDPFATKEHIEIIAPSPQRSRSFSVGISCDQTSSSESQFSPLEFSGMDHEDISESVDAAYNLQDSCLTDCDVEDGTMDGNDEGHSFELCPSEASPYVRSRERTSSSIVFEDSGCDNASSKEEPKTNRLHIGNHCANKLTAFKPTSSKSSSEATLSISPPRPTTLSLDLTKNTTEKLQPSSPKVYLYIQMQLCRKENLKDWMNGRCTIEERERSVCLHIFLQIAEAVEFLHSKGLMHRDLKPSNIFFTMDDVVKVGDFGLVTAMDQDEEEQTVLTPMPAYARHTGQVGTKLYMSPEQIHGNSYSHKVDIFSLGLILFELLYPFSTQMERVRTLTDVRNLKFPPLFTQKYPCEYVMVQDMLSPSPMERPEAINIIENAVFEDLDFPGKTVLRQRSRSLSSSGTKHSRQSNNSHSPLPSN

[2] = molecular target: panel of more than 300 wild-type and mutant kinases (313 kinase panel) (Homo sapiens, UniProt P41279)
[3] = molecular target: T2, panel of more than 300 wild-type and mutant kinases (313 kinase panel) (Homo sapiens, UniProt Q8TDC3)
T2 sequence (Q8TDC3 1-778): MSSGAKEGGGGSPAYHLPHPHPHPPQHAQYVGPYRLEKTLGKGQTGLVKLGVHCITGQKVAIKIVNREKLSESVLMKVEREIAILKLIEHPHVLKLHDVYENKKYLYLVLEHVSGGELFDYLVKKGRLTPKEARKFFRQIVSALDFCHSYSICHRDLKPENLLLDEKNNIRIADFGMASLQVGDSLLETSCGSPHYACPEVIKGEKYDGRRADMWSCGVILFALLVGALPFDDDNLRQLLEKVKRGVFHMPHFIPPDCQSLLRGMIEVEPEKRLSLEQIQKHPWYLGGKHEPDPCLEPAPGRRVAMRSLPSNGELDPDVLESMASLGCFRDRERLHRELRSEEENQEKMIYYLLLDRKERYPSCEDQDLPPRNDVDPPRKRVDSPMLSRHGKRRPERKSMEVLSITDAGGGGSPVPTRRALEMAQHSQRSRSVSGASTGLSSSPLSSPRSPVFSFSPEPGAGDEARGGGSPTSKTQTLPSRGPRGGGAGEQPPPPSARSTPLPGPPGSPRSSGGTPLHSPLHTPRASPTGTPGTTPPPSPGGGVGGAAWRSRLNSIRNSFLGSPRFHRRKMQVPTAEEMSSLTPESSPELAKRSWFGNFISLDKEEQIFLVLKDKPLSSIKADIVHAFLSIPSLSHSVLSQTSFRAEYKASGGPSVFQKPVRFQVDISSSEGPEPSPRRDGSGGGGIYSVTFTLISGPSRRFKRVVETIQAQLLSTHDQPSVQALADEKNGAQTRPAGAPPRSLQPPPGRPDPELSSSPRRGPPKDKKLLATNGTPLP

[4] = molecular target: T3, panel of more than 300 wild-type and mutant kinases (313 kinase panel) (Homo sapiens, UniProt Q99759)
T3 sequence (Q99759 1-626): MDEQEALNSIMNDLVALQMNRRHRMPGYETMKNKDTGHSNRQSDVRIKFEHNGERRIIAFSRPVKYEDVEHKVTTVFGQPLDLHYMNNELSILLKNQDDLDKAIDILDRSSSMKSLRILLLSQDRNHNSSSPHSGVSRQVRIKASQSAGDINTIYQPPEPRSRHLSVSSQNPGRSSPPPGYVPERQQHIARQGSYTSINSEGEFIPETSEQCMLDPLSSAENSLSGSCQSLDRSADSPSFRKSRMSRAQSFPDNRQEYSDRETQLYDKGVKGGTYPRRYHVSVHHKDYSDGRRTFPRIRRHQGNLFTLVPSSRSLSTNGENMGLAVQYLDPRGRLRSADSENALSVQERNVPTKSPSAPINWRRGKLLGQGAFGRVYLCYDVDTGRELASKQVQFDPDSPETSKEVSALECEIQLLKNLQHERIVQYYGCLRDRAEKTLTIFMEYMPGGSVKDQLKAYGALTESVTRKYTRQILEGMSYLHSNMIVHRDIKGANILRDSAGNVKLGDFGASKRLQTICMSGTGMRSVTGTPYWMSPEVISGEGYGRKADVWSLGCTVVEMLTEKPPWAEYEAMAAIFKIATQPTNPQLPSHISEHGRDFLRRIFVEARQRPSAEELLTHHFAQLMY

[5] = molecular target: panel of more than 300 wild-type and mutant kinases (313 kinase panel) (Homo sapiens, UniProt Q13153)
[6] = molecular target: panel of more than 300 wild-type and mutant kinases (313 kinase panel) (Homo sapiens, UniProt Q8TDX7)
[7] = kinase MAP3K3, compound at 1 μM

Chain of panel of more than 300 wild-type and mutant kinases (313 kinase panel) (Homo sapiens, UniProt P41279) (P41279 whole entry, change not shown): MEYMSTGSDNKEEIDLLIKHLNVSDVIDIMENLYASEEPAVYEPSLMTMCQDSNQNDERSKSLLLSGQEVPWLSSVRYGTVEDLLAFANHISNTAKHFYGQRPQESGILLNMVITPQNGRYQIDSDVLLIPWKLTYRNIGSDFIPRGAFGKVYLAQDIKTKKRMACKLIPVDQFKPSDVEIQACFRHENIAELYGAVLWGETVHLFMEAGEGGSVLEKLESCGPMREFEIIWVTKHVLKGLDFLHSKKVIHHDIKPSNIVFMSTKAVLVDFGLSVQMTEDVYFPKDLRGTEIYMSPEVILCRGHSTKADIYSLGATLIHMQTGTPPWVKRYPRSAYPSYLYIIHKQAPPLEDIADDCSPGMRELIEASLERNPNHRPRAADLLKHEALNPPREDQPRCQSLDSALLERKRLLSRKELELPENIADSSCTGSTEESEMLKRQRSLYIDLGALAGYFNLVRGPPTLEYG

CN(C)C/C=C/C(=O)Nc1cc2c(Nc3ccc(F)c(Cl)c3)ncnc2cc1O[C@H]1CCOC1 [afatinib]
%-inhibition of PEK ([1]; kinase PEK, 1 μM): 12% | %-inhibition of COT ([2]; kinase COT, compound at 1 μM): -7.4%

COc1cc(Nc2c(C#N)cnc3cc(OCCCN4CCN(C)CC4)c(OC)cc23)c(Cl)cc1Cl [bosutinib]
%-inhibition, BRSK1 ([3]; kinase BRSK1, 1 μM compound): -11% | %-inhibition of MAP3K3 [4, 7]: 91% | %-inhibition of PEK ([1]; kinase PEK, 1 μM): 11% | %-inhibition of COT ([2]; kinase COT, compound at 1 μM): 7%

COc1cc2nccc(Oc3ccc(NC(=O)C4(C(=O)Nc5ccc(F)cc5)CC4)cc3)c2cc1OC [cabozantinib]
%-inhibition of PAK1 ([5]; kinase PAK1, 1 μM): -2.55% | %-inhibition of NEK7 ([6]; kinase NEK7, 1 μM): -6% | %-inhibition, BRSK1 ([3]; kinase BRSK1, 1 μM compound): 3.24% | %-inhibition of MAP3K3 [4, 7]: 9% | %-inhibition of PEK ([1]; kinase PEK, 1 μM): 79% | %-inhibition of COT ([2]; kinase COT, compound at 1 μM): 18%

C[C@@H](Oc1cc(-c2cnn(C3CCNCC3)c2)cnc1N)c1c(Cl)ccc(F)c1Cl [crizotinib]
%-inhibition of PAK1 ([5]; kinase PAK1, 1 μM): -4% | %-inhibition of NEK7 ([6]; kinase NEK7, 1 μM): -5.3% | %-inhibition, BRSK1 ([3]; kinase BRSK1, 1 μM compound): 12% | %-inhibition of PEK ([1]; kinase PEK, 1 μM): 1.1% | %-inhibition of COT ([2]; kinase COT, compound at 1 μM): 11%

CC(C)(C)c1nc(-c2cccc(NS(=O)(=O)c3c(F)cccc3F)c2F)c(-c2ccnc(N)n2)s1 [dabrafenib]
%-inhibition of NEK7 ([6]; kinase NEK7, 1 μM): 2.28% | %-inhibition, BRSK1 ([3]; kinase BRSK1, 1 μM compound): 37% | %-inhibition of MAP3K3 [4, 7]: 6% | %-inhibition of COT ([2]; kinase COT, compound at 1 μM): 9%

Cc1nc(Nc2ncc(C(=O)Nc3c(C)cccc3Cl)s2)cc(N2CCN(CCO)CC2)n1 [dasatinib]
%-inhibition of MAP3K3 [4, 7]: 88%

C#Cc1cccc(Nc2ncnc3cc(OCCOC)c(OCCOC)cc23)c1 [erlotinib]
%-inhibition of PAK1 ([5]; 1 µM): 6.37% | %-inhibition of NEK7 ([6]; 1 µM): 0.893% | %-inhibition, BRSK1 ([3]; 1 µM): 5.68% | %-inhibition of MAP3K3 ([4]; 1 µM): 17% | %-inhibition of PEK ([1]; 1 µM): 1.35% | %-inhibition of COT ([2]; 1 µM): -0.486%

CO[C@H]1C[C@@H]2CC[C@@H](C)[C@@](O)(O2)C(=O)C(=O)N2CCCC[C@H]2C(=O)O[C@H]([C@H](C)C[C@@H]2CC[C@@H](OCCO)[C@H](OC)C2)CC(=O)[C@H](C)/C=C(\C)[C@@H](O)[C@@H](OC)C(=O)[C@H](C)C[C@H](C)/C=C/C=C/C=C/1C [everolimus]
%-inhibition of PAK1 ([5]; kinase PAK1, 1 μM): -5.39% | %-inhibition of NEK7 ([6]; kinase NEK7, 1 μM): -11% | %-inhibition, BRSK1 ([3]; kinase BRSK1, 1 μM compound): -9% | %-inhibition of MAP3K3 [4, 7]: 3.6% | %-inhibition of PEK ([1]; kinase PEK, 1 μM): 5.28% | %-inhibition of COT ([2]; kinase COT, compound at 1 μM): -3%

O=S(=O)(c1cccc2cnccc12)N1CCCNCC1 [fasudil]
%-inhibition of NEK7 ([6]; kinase NEK7, 1 μM): -1.52% | %-inhibition, BRSK1 ([3]; kinase BRSK1, 1 μM compound): -0.211% | %-inhibition of MAP3K3 [4, 7]: -14% | %-inhibition of PEK ([1]; kinase PEK, 1 μM): -7.4% | %-inhibition of COT ([2]; kinase COT, compound at 1 μM): 12%

CS(=O)(=O)CCNCc1ccc(-c2ccc3ncnc(Nc4ccc(OCc5cccc(F)c5)c(Cl)c4)c3c2)o1 [lapatinib]
%-inhibition of NEK7 ([6]; 1 µM): -0.744% | %-inhibition, BRSK1 ([3]; kinase BRSK1, 1 μM compound): 2% | %-inhibition of MAP3K3 ([4]; 1 µM): 4.75% | %-inhibition of PEK ([1]; kinase PEK, 1 μM): -0.193% | %-inhibition of COT ([2]; kinase COT, compound at 1 μM): -0.221%

Cc1cn(-c2cc(NC(=O)c3ccc(C)c(Nc4nccc(-c5cccnc5)n4)c3)cc(C(F)(F)F)c2)cn1 [nilotinib]
%-inhibition of PAK1 ([5]; kinase PAK1, 1 μM): -159% | %-inhibition of NEK7 ([6]; kinase NEK7, 1 μM): -3.77% | %-inhibition, BRSK1 ([3]; kinase BRSK1, 1 μM compound): 0.801% | %-inhibition of MAP3K3 ([4]; 1 µM): -21% | %-inhibition of PEK ([1]; kinase PEK, 1 μM): 0.387% | %-inhibition of COT ([2]; kinase COT, compound at 1 μM): 2.3%

Cc1ccc(Nc2nccc(N(C)c3ccc4c(C)n(C)nc4c3)n2)cc1S(N)(=O)=O [pazopanib]
%-inhibition of PAK1 ([5]; kinase PAK1, 1 μM): -0.494% | %-inhibition of NEK7 ([6]; kinase NEK7, 1 μM): -4.75% | %-inhibition, BRSK1 ([3]; kinase BRSK1, 1 μM compound): -1.05% | %-inhibition of MAP3K3 [4, 7]: 77% | %-inhibition of PEK ([1]; kinase PEK, 1 μM): 2.38% | %-inhibition of COT ([2]; kinase COT, compound at 1 μM): -0.233%

Cc1ccc(C(=O)Nc2ccc(CN3CCN(C)CC3)c(C(F)(F)F)c2)cc1C#Cc1cnc2cccnn12 [ponatinib]
%-inhibition of NEK7 ([6]; kinase NEK7, 1 μM): -10% | %-inhibition, BRSK1 ([3]; kinase BRSK1, 1 μM compound): -8% | %-inhibition of MAP3K3 [4, 7]: 88% | %-inhibition of PEK ([1]; kinase PEK, 1 μM): 65% | %-inhibition of COT ([2]; kinase COT, compound at 1 μM): -2.42%

CNC(=O)c1cc(Oc2ccc(NC(=O)Nc3ccc(Cl)c(C(F)(F)F)c3)c(F)c2)ccn1 [regorafenib]
%-inhibition of PAK1 ([5]; kinase PAK1, 1 μM): -8% | %-inhibition of NEK7 ([6]; kinase NEK7, 1 μM): -13% | %-inhibition, BRSK1 ([3]; kinase BRSK1, 1 μM compound): -17% | %-inhibition of MAP3K3 [4, 7]: 9% | %-inhibition of PEK ([1]; kinase PEK, 1 μM): 12% | %-inhibition of COT ([2]; kinase COT, compound at 1 μM): -4%

CCN(CC)CCNC(=O)c1c(C)[nH]c(/C=C2\C(=O)Nc3ccc(F)cc32)c1C [sunitinib]
%-inhibition of MAP3K3 [4, 7]: 76%
